Earlier results as cited in patent EP1988398B1, “Immunoassay for tramadol and its major metabolites” (Randox Laboratories Ltd., priority 2007, dated 2008).
Counter-ions that a name gives are not always drawn.

[1] = oral administration of a single 100 mg dose

SMILES	abundance of N-demethyltramadol relative to O-demethyltramadol (normal tramadol dosage levels)	plasma concentration of tramadol peaks [1]	time of peak plasma concentration [1] [h]	Urinary excretion of the dose as metabolites (oral, single 100 mg dose) [%]	Urinary excretion of the dose as the unchanged drug (oral, single 100 mg dose) [%]
CNC[C@@H]1CCCC[C@@]1(O)c1cccc(OC)c1 (racemic) [N-demethyltramadol, (±)-cis-2-[(methylamino)methyl]-1-(3-methoxyphenyl)cyclohexanol]	1.5-3 times	–	–	–	–
COc1cccc(C2(O)CCCCC2CN(C)C)c1 (racemic) [Tramadol, (±)-cis-2-[(dimethylamino)methyl]-1-(3-methoxyphenyl)cyclohexanol hydrochloride]	–	approximately 600 ng/ml	2 to 3	60	30
